Data taken from PMC4941420, “A Rational Approach for the Identification of Non-Hydroxamate HDAC6-Selective Inhibitors” (Scientific Reports, 2016).

Experiments:
[1] = tested on: histone H4 acetylation in HeLa cells; experiment: Acetyl histone H4 Western blotting in HeLa cells; type: cell-based, human; details: 500 μM, 6 h
Protocol: The acetyl-α-tubulin sandwich ELISA Kit (Pathscan® #7204, Cell Signalling) was used to determine tubulin acetylation levels, and Western blotting was used to evaluate histone H4 acetylation, both methods applied to lysates of treated and non-treated HeLa cells (ATCC CCL-2). Cells were cultured in DMEM medium, 4.5 g/L glucose, L-glutamine (Invitrogen), supplemented with 10% heat-inactivated fetal bovine serum (FBS, Biowest), 100 units/mL penicillin, and 100 μg/mL streptomycin, and 1% non-essential amino acids (Invitrogen) at 37 °C with 5% CO2. Prior to ELISA experiments, cells were seeded into 6-well plates at 150,000 cells/well and transfected with the HDAC6-GFP construct (pEGFP.N1-HDAC6, Addgene)[58], using the Lipofectamine 2000 reagent (Invitrogen). Cells were then treated with test compounds, standards or vehicle (0.5% DMSO in culture medium) for 48 h. After the incubation time, cells were washed with cold DPBS (Invitrogen) and lysates were obtained by recovering cells in cold lysis buffer provided in the ELISA kit, supplemented with a protease inhibitor tablet (SigmaFast, Sigma Aldrich). Briefly, cells were harvested in DPBS and centrifuged. The cell pellet was suspended in 100 μL lysis buffer, vortexed, and kept on melting ice for 30 min. […] Protein concentration was determined by fluorimetry using the Qubit protein assay kit (Invitrogen). […]

HDAC4 = target: T1, HDAC4 (Homo sapiens, UniProt P56524); experiment: In vitro enzymatic assay HDAC4 (Fluor de Lys); type: biochemical; details: average of at least 2 independent experiments in duplicates ± SEM
T1 construct: purchased Sigma Aldrich or Reaction Biology Corporation

HDAC2 = target: T2, HDAC2 (Homo sapiens, UniProt Q92769); experiment: In vitro enzymatic assay HDAC2 (Fluor de Lys); type: biochemical; details: average of at least 2 independent experiments in duplicates ± SEM
T2 construct: purchased Sigma Aldrich or Reaction Biology Corporation

[2] = Cytotoxicity XTT, HEK 293; type: cell-based; details: human, HEK 293 cells (ATCC CRL-1573), mean ± SD of 3 independent experiments in triplicate, read-out: cytotoxic IC50 HEK 293
Protocol: (§1) HeLa and HEK 293 cells (ATCC CRL-1573) were cultured as described above and seeded into 96-well plates at 400 cells/well. Test and standard compounds were added to plate wells in triplicate (0.05% DMSO in culture medium) in a range of six concentrations. Following 72 h of incubation, […] of an activated XTT solution was added to the cells (1 mg/mL). The absorbance was measured at 450 nm after 2 h incubation at 37 °C. The growth of the compound-treated cells was compared with the growth of vehicle-treated control cells. IC50 values were calculated with GraphPad Prism 6.0.

HDAC8 = target: T3, HDAC8 (Homo sapiens, UniProt Q9BY41); experiment: In vitro enzymatic assay HDAC8 (Fluor de Lys); type: biochemical; details: average of at least 2 independent experiments in duplicates ± SEM
T3 construct: purchased Sigma Aldrich or Reaction Biology Corporation
T3 sequence (Q9BY41 1-377): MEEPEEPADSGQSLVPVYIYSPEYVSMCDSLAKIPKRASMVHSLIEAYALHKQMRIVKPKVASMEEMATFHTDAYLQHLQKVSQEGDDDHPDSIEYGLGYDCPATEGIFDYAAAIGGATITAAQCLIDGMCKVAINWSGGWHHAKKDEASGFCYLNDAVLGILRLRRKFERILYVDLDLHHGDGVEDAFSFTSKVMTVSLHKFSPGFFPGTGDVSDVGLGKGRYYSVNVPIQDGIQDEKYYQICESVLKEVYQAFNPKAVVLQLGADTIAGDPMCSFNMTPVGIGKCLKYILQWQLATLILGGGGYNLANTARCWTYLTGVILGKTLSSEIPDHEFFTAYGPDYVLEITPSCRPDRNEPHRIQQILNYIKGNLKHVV

[3] = tested on: α-tubulin acetylation in HeLa cells; experiment: Acetyl-α-tubulin sandwich ELISA in HeLa cells; type: cell-based, human; details: 48 h
Protocol: The acetyl-α-tubulin sandwich ELISA Kit (Pathscan® #7204, Cell Signalling) was used to determine tubulin acetylation levels, and Western blotting was used to evaluate histone H4 acetylation, both methods applied to lysates of treated and non-treated HeLa cells (ATCC CCL-2). Cells were cultured in DMEM medium, 4.5 g/L glucose, L-glutamine (Invitrogen), supplemented with 10% heat-inactivated fetal bovine serum (FBS, Biowest), 100 units/mL penicillin, and 100 μg/mL streptomycin, and 1% non-essential amino acids (Invitrogen) at 37 °C with 5% CO2. Prior to ELISA experiments, cells were seeded into 6-well plates at 150,000 cells/well and transfected with the HDAC6-GFP construct (pEGFP.N1-HDAC6, Addgene)[58], using the Lipofectamine 2000 reagent (Invitrogen). Cells were then treated with test compounds, standards or vehicle (0.5% DMSO in culture medium) for 48 h. After the incubation time, cells were washed with cold DPBS (Invitrogen) and lysates were obtained by recovering cells in cold lysis buffer provided in the ELISA kit, supplemented with a protease inhibitor tablet (SigmaFast, Sigma Aldrich). Briefly, cells were harvested in DPBS and centrifuged. The cell pellet was suspended in 100 μL lysis buffer, vortexed, and kept on melting ice for 30 min. Lysates were then obtained by recovering the supernatant after a centrifugation step of 10 min at 11,000 g, 4 °C. Protein concentration was determined by fluorimetry using the Qubit protein assay kit (Invitrogen). Cell lysates were tested at 1 mg/mL following the instructions provided by the ELISA kit manufacturer. For the Western blotting, cells were seeded into 100 mm Petri dishes and treated for 6 h. After the incubation time, cells were washed with cold DPBS (Invitrogen) supplemented with a protease inhibitor tablet (Sigma Fast, Sigma Aldrich), and lysates were obtained by recovering cells in 100 μL cold lysis buffer (10 mM Hepes pH 7.9, 1.5 mM MgCl2, 10 mM KCl, 0.5 mM DTT, 1.5 mM PMSF, 0.2M HCl) the same way as described above. […]

[4] = Solubility remarks during testing; type: physicochemical; details: concentrations higher than 500 μM cannot be tested
Cytotoxicity XTT, HeLa = type: cell-based, human; details: human, HeLa cells, mean ± SD of 3 independent experiments in triplicate, read-out: cytotoxic IC50 HeLa
Protocol: as §1

T1 sequence (P56524 whole entry): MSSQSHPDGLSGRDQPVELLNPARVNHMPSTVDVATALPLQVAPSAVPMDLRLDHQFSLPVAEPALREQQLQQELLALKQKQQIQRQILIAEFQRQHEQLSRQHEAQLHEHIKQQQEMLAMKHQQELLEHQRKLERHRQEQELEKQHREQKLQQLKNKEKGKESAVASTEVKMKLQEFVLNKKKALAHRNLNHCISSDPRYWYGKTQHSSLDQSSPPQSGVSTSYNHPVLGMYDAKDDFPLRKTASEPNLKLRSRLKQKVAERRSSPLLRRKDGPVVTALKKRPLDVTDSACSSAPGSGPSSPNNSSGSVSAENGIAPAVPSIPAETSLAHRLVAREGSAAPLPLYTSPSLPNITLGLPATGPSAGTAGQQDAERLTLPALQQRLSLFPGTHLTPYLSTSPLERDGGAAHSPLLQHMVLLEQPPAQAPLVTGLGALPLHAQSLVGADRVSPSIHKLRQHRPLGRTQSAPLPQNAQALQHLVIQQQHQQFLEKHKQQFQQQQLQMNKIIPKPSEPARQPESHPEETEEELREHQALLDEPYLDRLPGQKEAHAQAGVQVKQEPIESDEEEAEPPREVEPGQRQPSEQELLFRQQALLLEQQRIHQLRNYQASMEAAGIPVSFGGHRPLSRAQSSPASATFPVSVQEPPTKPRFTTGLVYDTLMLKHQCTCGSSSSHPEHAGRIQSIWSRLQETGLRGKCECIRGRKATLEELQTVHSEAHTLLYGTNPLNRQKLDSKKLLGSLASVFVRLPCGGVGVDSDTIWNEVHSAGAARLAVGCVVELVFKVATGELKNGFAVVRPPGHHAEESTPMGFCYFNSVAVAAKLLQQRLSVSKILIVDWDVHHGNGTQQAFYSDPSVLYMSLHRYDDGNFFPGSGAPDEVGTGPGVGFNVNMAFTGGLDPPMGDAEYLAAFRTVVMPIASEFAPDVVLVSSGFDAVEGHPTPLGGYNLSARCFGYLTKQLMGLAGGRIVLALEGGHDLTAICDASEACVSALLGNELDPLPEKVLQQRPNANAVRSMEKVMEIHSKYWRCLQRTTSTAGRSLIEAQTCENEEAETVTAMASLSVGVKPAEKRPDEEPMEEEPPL
T2 sequence (Q92769 whole entry): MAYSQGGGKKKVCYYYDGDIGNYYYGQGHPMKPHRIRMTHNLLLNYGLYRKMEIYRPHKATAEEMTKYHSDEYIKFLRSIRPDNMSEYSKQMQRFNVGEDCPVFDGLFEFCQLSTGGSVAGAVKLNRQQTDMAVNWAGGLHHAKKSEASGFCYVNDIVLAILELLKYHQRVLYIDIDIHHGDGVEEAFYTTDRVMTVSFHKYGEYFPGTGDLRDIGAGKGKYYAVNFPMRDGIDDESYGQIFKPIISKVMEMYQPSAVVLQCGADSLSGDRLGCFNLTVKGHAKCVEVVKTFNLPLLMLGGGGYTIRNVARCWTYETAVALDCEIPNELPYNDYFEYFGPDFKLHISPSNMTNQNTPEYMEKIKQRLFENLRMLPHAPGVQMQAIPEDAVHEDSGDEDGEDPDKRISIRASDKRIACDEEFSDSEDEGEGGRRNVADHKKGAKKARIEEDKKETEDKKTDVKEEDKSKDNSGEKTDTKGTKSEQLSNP

Compound: NNC(=O)c1ccc(COc2ccccc2Cl)cc1 [AK-14]
- acetylation profile of histone H4 [1]: did not change
- IC50 (HDAC4): > 300 µM
- IC50 (HDAC2): > 1000 µM
- IC50 at 72 h [2]: 34.5 ± 4.8 µM
- IC50 (HDAC8): > 300 µM
- acetylated tubulin levels ([3]; 250 μM): less remarkable effect
- acetylated tubulin levels ([3]; 500 μM): significantly increase
- solubility remark in HeLa cell assay [4]: solubility issues
- IC50 at 72 h (Cytotoxicity XTT, HeLa): 299 ± 56.1 µM
